Results published in paper PMC5983544, “Muscarinic M5 receptors modulate ethanol seeking in rats” (Neuropsychopharmacology, 2018).

Columns and labels:
rat M4 mAChR = target: T1, rat M4 mAChR (Rattus norvegicus, UniProt P08485); assay: ACh-stimulated [35S]GTPγS binding in CHO-rM4 cell membranes; type: biochemical; settings: rM4, [35S]GTPγS binding
T1 construct: host or cells: FlpIn CHO cells (Invitrogen)
T1 sequence (P08485 1-478): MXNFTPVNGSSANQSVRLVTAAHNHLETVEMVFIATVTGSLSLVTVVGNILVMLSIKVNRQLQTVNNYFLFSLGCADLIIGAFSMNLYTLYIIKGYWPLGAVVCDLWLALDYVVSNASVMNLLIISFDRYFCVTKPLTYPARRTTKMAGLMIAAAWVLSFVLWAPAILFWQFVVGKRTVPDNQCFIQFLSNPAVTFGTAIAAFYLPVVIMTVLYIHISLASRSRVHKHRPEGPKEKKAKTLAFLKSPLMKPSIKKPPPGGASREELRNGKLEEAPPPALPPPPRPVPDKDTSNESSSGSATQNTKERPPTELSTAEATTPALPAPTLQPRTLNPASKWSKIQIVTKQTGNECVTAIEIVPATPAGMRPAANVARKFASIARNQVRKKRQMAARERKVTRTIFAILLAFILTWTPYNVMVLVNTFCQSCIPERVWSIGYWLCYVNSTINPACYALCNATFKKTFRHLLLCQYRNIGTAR
Experimental: (§1) [^3H]NMS equilibrium binding assays in CHO-rM1 to CHO-rM5 cells were performed as previously described for CHO-hM5 cells. For [^35S]GTPγS binding, CHO-rM2 and CHO-rM4 cell membranes were prepared as described in Supplementary information. Membrane [^35S]GTPγS binding was performed as described in ref [26]., except GDP and [^35S]GTPγS concentrations were 1 μM and 0.3 nM, respectively. [^3H](+)-pentazocine binding was performed as described in ref. [27].

[1] = test system: ethanol-preferring (iP) rats; assay: Locomotor activity; type: in vivo, rat; settings: 60 min
Experimental: Rats (n = 6) were habituated to the locomotor room for at least 3 h.

[2] = Rat pharmacokinetics (intraperitoneal or oral dosing); type: in vivo
Experimental: ML375 pharmacokinetics after either intraperitoneal or oral dosing of rats was determined as described in Supplementary information.

rat M5 mAChR = target: T2, rat M5 mAChR (Rattus norvegicus, UniProt P08911); assay: [3H]NMS equilibrium binding in whole CHO-rM5 cells (interaction with ACh); settings: whole-cell [3H]NMS binding, read-out: binding affinity pKB (converted)
T2 sequence (P08911 1-531): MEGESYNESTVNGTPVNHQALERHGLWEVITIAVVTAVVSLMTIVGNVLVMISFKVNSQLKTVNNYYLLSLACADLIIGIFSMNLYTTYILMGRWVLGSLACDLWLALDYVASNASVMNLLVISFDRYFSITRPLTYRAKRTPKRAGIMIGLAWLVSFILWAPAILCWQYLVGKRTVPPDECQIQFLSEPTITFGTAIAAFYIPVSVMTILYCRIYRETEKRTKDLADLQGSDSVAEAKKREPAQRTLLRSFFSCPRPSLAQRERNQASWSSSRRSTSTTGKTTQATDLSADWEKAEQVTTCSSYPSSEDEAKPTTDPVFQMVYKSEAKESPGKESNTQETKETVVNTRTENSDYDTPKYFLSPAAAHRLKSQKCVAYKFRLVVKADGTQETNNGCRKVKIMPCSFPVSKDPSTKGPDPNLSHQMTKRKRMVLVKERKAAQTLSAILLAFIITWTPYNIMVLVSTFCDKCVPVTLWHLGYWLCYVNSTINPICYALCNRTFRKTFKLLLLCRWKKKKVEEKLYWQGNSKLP
Experimental: Rat mAChR subtypes (rM1–rM5; Origene) and human cannabinoid 1 receptor (hCB1; ref. [24]) constructs were isogenically integrated into FlpIn CHO cells (Invitrogen) and cells were selected in the presence of […] hygromycin B at 37 °C, 5% CO2, as previously described for the human M1 mAChR [25]. All cells were sub-cultured and seeded as previously described for the CHO-hM5 cells.
as §1

[3] = single 30 mg/kg oral dose, plasma

effect on ACh potency (rat M4 mAChR): no significant effects
locomotor activity vs vehicle ([1]; 30 mg/kg p.o., P = 0.53): no difference
locomotor activity vs vehicle ([1]; 56.6 mg/kg p.o., P = 0.016): did reduce locomotor activity
clearance ([2]; 20 mg/kg i.p., 24 h profile): low clearance
terminal half-life ([2]; 20 mg/kg i.p., 24 h profile): long terminal half-life
Kp at 24 h ([2]; brain and plasma, ip, 20 mg/kg i.p., 24 h timepoint, read-out: brain-to-plasma ratio): 3 ± 0.7
Cmax [2, 3]: 4.7 ± 0.7 µM
Tmax [2, 3]: 7 h
Kb (rat M5 mAChR): 355 nM
Compound: O=C(c1ccc(F)c(F)c1)N1CCN2C(=O)c3ccccc3[C@@]12c1ccc(Cl)cc1 [ML375, (S)-9b-(4-chlorophenyl)-1-(3,4-difluorobenzoyl)-2,3-dihydro-1H-imidazo[2,1-a]isoi ndol-5(9bH)-one]
